In general, EC50 refers to the concentration giving half of the maximal effect. A high value points to a less potent agent.

The structures appear in SMILES notation.

One assay deals with T1, LXR.
T1 construct: fused on or other part: GST fused to the LBD in the FRET assay
Put plainly: Measured EC50 or IC50 for LXR (LXRα and/or LXRβ; assay and subtype not given). Particulars: IC50 or EC50 class, subtype not specified. As to the method: (§1) Measured EC50 or IC50 for LXR, and FXR for Compounds of the Invention
(§2) LXR and FXR activities for various compounds of the invention are presented in the following table; those compounds with EC50 or IC50 values <10 μM for at least one of LXRα, LXRβ or FXR are considered to be active. In the following Table, IC50 or EC50 data is represented as follows: A<1 μM, B=1-10 μm, and C>10 μM.

A further assay has as its target T2, FXR (Homo sapiens, UniProt Q96RI1).
T2 sequence (Q96RI1 1-472 isoform Q96RI1-2): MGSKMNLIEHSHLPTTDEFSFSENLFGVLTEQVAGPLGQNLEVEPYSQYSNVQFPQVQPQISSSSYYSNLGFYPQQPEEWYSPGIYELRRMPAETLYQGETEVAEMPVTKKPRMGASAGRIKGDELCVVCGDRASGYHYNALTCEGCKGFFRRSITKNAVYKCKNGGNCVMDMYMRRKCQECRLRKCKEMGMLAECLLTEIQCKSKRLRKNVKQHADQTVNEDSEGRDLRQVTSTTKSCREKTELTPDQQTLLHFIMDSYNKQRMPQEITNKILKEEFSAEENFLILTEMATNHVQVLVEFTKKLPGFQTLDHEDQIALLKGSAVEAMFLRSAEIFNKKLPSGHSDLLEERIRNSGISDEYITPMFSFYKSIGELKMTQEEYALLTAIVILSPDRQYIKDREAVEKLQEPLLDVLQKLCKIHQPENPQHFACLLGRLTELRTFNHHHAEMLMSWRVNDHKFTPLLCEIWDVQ
Put plainly: Measured EC50 or IC50 for FXR (assay not given). The settings on record: IC50 or EC50 class; assay not specified. As for the experimental part: as §1, §2

Consider `O=C(O)c1ccc(-c2ccc(OCc3cc(C(F)(F)F)nn3-c3c(Cl)cccc3Cl)cc2)c(Cl)c1` [Example 946, 2-chloro-4′-({[1-(2,6-dichlorophenyl)-3-(trifluoromethyl)-1H-pyrazol-5-yl]methyl}oxy)biphenyl-4-carboxylic acid], for which the concentration giving a half-maximal response (EC50) is < 1000 nM in the assay with LXR and 1000 to 10000 nM on FXR.
Take `CC(C)(O)c1nn(-c2ccc(-c3cccc(S(C)(=O)=O)c3)cc2F)c(-c2c(F)cccc2Cl)c1Cl` [Example 964, 2-{4-chloro-5-(2-chloro-6-fluorophenyl)-1-[3-fluoro-3′-(methysulfonyl)biphenyl-4-yl]-1H-pyrazol-3-yl}propan-2-ol]: the concentration giving a half-maximal response (EC50) with LXR is < 1000 nM; on FXR, 1000 to 10000 nM.
The matching figures for `CC(C)(O)c1nn(-c2c(Cl)cccc2Cl)c(-c2ccc(-c3cccc(S(C)(=O)=O)c3)s2)c1Cl` [Example 953, 2-[4-chloro-1-(2,6-dichlorophenyl)-5-{5-[3-(methylsulfonyl)phenyl]-2-thienyl}-1H-pyrazol-3-yl]propan-2-ol]: < 1000 nM and 1000 to 10000 nM.
Consider `CC(C)(O)c1cc(COc2ccc(-c3ccc(C(=O)O)cc3Cl)cc2)n(-c2c(Cl)cccc2Cl)n1` [Example 906, 2-chloro-4′-({[1-(2,6-dichlorophenyl)-3-(1-hydroxy-1-methylethyl)-1H-pyrazol-5-yl]methyl}oxy)biphenyl-4-carboxylic acid], for which the EC50 with LXR and at FXR was 1000 to 10000 nM in each case.
`CC(C)(O)c1cc(-c2ccc(-c3cccc(S(C)(=O)=O)c3)s2)n(-c2c(F)cccc2F)n1` [Example 948, 2-[1-(2,6-difluorophenyl)-5-{5-[3-(methylsulfonyl)phenyl]-2-thienyl}-1H-pyrazol-3-yl]propan-2-ol]: the concentration giving a half-maximal response (EC50) in the assay with LXR is < 1000 nM; on FXR it was 1000 to 10000 nM.
Taken in the same sequence, the figures for `Cc1cc(-n2nc(C(C)(C)O)cc2-c2c(F)cccc2Cl)ccc1-c1cccc(S(C)(=O)=O)c1` [Example 969, 2-{5-(2-chloro-6-fluorophenyl)-1-[2-methyl-3′-(methylsulfonyl)biphenyl-4-yl]-1H-pyrazol-3-yl}propan-2-ol] were 1000 to 10000 nM and 1000 to 10000 nM.
For the compound `CC(C)(O)c1nn(-c2c(F)cccc2Cl)c(-c2ccc(-c3cccc(S(C)(=O)=O)c3)s2)c1Cl` [Example 954, 2-[4-chloro-1-(2-chloro-6-fluorophenyl)-5-{5-[3-(methylsulfonyl)phenyl]-2-thienyl}-1H-pyrazol-3-yl]propan-2-ol], the half-maximal effective concentration (EC50) in the assay on LXR was < 1000 nM; at FXR, 1000 to 10000 nM.
For `Cc1cc(-c2cc(C(C)(C)O)nn2-c2c(Cl)cccc2Cl)ccc1-c1cccc(S(C)(=O)=O)c1` [Example 961, 2-{1-(2,6-dichlorophenyl)-5-[2-methyl-3′-(methylsulfonyl)biphenyl-4-yl]-1H-pyrazol-3-yl}propan-2-ol], the EC50 with LXR is 1000 to 10000 nM; at FXR, < 1000 nM.
On to `CC(C)(O)c1nn(-c2c(Cl)cccc2Cl)c(-c2ccc(-c3cccc(S(C)(=O)=O)c3)cc2Cl)c1Cl` [Example 959, 2-{4-chloro-5-[3-chloro-3′-(methysulfonyl)biphenyl-4-yl]-1-(2,6-dichlorophenyl)-1H-pyrazol-3-yl}propan-2-ol], for which the concentration giving a half-maximal response (EC50) in the assay on LXR and on FXR was < 1000 nM each time.
Turning to `CC(C)(O)c1cc(-c2ccc(-c3cccc(S(C)(=O)=O)c3)s2)n(-c2c(F)cccc2Cl)n1` [Example 950, 2-[1-(2-chloro-6-fluorophenyl)-5-{5-[3-(methylsulfonyl)phenyl]-2-thienyl}-1H-pyrazol-3-yl]propan-2-ol], the EC50 in the assay on LXR is < 1000 nM; at FXR, 1000 to 10000 nM.
The matching figures for `CC(C)(O)c1nn(-c2c(Cl)cccc2Cl)c(-c2ccc(-c3cccc(S(C)(=O)=O)c3)cc2)c1Cl` [Example 957, 2-{4-chloro-1-(2,6-dichlorophenyl)-5-[3′-(methylsulfonyl)biphenyl-4-yl]-1H-pyrazol-3-yl}propan-2-ol]: < 1000 nM and < 1000 nM.
Take `CC(C)(O)c1cc(-c2ccc(-c3cccc(S(C)(=O)=O)c3)cc2Cl)n(-c2c(Cl)cccc2Cl)n1` [Example 958, 2-{5-[3-chloro-3′-(methylsulfonyl)biphenyl-4-yl]-1-(2,6-dichlorophenyl)-1H-pyrazol-3-yl}propan-2-ol]: the 50% effective concentration (EC50) with LXR and at FXR was < 1000 nM in each case.
`CC(C)(O)c1cc(-c2ccc(-c3cccc(S(C)(=O)=O)c3)s2)n(-c2c(F)cccc2C(F)(F)F)n1` [Example 951]: the figures for the concentration giving a half-maximal response (EC50) in the assay with LXR and on FXR were < 1000 nM and 1000 to 10000 nM, respectively.
For the compound `CC(C)(O)c1cc(-c2c(F)cccc2Cl)n(-c2ccc(-c3cccc(S(C)(=O)=O)c3)cc2)n1` [Example 962, 2-{5-(2-chloro-6-fluorophenyl)-1-[3′-(methylsulfonyl)biphenyl-4-yl]-1H-pyrazol-3-yl}propan-2-ol], the EC50 is < 1000 nM in the assay with LXR and 1000 to 10000 nM at FXR.
Taken in the same sequence, the figures for `Cc1cc(-c2cccc(S(C)(=O)=O)c2)ccc1-n1nc(C(C)(C)O)cc1-c1c(Cl)cccc1Cl` [Example 966, 2-{5-(2,6-dichlorophenyl)-1-[3-methyl-3′-(methylsulfonyl)biphenyl-4-yl]-1H-pyrazol-3-yl}propan-2-ol] were < 1000 nM and 1000 to 10000 nM.
The matching figures for `CC(C)(O)c1cc(-c2c(Cl)cccc2Cl)n(-c2ccc(-c3cccc(S(C)(=O)=O)c3)cc2Cl)n1` [Example 965, 2-{1-[3-chloro-3′-(methylsulfonyl)biphenyl-4-yl]-5-(2,6-dichlorophenyl)-1H-pyrazol-3-yl}propan-2-ol]: < 1000 nM and 1000 to 10000 nM.
Regarding `CC(C)c1cc(COc2ccc(-c3ccc(C(=O)O)cc3Cl)cc2)n(-c2c(Cl)cccc2Cl)n1` [Example 947, 2-chloro-4′-({[1-(2,6-dichlorophenyl)-3-(1-methylethyl)-1H-pyrazol-5-yl]methyl}oxy)biphenyl-4-carboxylic acid], the EC50 in the assay with LXR and at FXR was < 1000 nM throughout.
In the case of `CC(C)(O)c1cc(-c2ccc(-c3cccc(S(C)(=O)=O)c3)cc2)n(-c2c(Cl)cccc2Cl)n1` [Example 956, 2-{1-(2,6-dichlorophenyl)-5-[3′-(methylsulfonyl)biphenyl-4-yl]-1H-pyrazol-3-yl}propan-2-ol], the EC50 is < 1000 nM in the assay on LXR and 1000 to 10000 nM at FXR.
Take `CC(C)c1cc(COc2ccc(-c3ccc(C(=O)O)cc3Cl)cc2)n(-c2c(Cl)cccc2Cl)n1` [Example 907, 2-chloro-4′-({[1-(2,6-dichlorophenyl)-3-(1-methylethyl)-1H-pyrazol-5-yl]methyl}oxy)biphenyl-4-carboxylic acid]: the EC50 in the assay with LXR is 1000 to 10000 nM; on FXR, < 1000 nM.
With `Cc1cc(-c2cccc(S(C)(=O)=O)c2)ccc1-n1nc(C(C)(C)O)c(Cl)c1-c1c(F)cccc1Cl` [Example 968, 2-{4-chloro-5-(2-chloro-6-fluorophenyl)-1-[3-methyl-3′-(methylsulfonyl)biphenyl-4-yl]-1H-pyrazol-3-yl}propan-2-ol], the results for the EC50 in the assay with LXR and at FXR were < 1000 nM and > 10000 nM, respectively.
The matching figures for `Cc1cc(-n2nc(C(C)(C)O)cc2-c2c(Cl)cccc2Cl)ccc1-c1cccc(S(C)(=O)=O)c1` [Example 970, 2-{5-(2,6-dichlorophenyl)-1-[2-methyl-3′-(methylsulfonyl)biphenyl-4-yl]-1H-pyrazol-3-yl}propan-2-ol]: 1000 to 10000 nM and 1000 to 10000 nM.
Taken in the same sequence, the figures for `CC(C)(O)c1cc(-c2c(Cl)cccc2Cl)n(-c2ccc(-c3cccc(S(C)(=O)=O)c3)cc2)n1` [Example 963, 2-{5-(2,6-dichlorophenyl)-1-[3′-(methylsulfonyl)biphenyl-4-yl]-1H-pyrazol-3-yl}propan-2-ol] were < 1000 nM and 1000 to 10000 nM.
Taken in the same sequence, the figures for `Cc1cc(-c2cccc(S(C)(=O)=O)c2)ccc1-n1nc(C(C)(C)O)c(Cl)c1-c1c(Cl)cccc1Cl` [Example 967, 2-{4-chloro-5-(2,6-dichlorophenyl)-1-[3-methyl-3′-(methylsulfonyl)biphenyl-4-yl]-1H-pyrazol-3-yl}propan-2-ol] were < 1000 nM and 1000 to 10000 nM.
Consider `Cc1cc(-n2nc(C(C)(C)O)c(Cl)c2-c2c(Cl)cccc2Cl)ccc1-c1cccc(S(C)(=O)=O)c1` [Example 972, 2-{4-chloro-5-(2,6-dichlorophenyl)-1-[2-methyl-3′-(methylsulfonyl)biphenyl-4-yl]-1H-pyrazol-3-yl}propan-2-ol], for which the EC50 in the assay with LXR and on FXR was 1000 to 10000 nM throughout.
Consider `Cc1cc(-n2nc(C(C)(C)O)c(Cl)c2-c2c(F)cccc2Cl)ccc1-c1cccc(S(C)(=O)=O)c1` [Example 971, 2-{4-chloro-4-(2-chloro-6-fluoropehnyl)-1-[2-methyl-3′-(methylsulfonyl)biphenyl-4-yl]-1H-pyrazol-3-yl}propan-2-ol], for which the values for the EC50 in the assay with LXR and at FXR were < 1000 nM and 1000 to 10000 nM, respectively.
In the case of `CS(=O)(=O)c1cccc(-c2ccc(-n3cc(-c4ccsc4)nc3-c3ccccc3C(F)(F)F)cc2)c1` [Example 996, 1-(3′-(methylsulfonyl)biphenyl-4-yl)-4-(thiophen-3-yl)-2-(2-(trifluoromethyl)phenyl)-1H-imidazole], in the assay on LXR, the EC50 was < 1000 nM.

(Values after patent publication US7998995B2 (Exelixis Patent Company LLC, priority 2006, dated 2011).)
